Assay results from ChEMBL document CHEMBL5214957.
Blank lines part the entries; values can stand above or below the compound they belong to.

Columns and labels:
Assay type in all cases: cell-based
[1] = biological target: T1, Potassium channel subfamily T member 1 (Homo sapiens, UniProt Q5JUK3); assay: Inhibition of wild-type human Slack expressed in HEK293 cells measured by thallium flux assay
T1 sequence (Q5JUK3 whole entry): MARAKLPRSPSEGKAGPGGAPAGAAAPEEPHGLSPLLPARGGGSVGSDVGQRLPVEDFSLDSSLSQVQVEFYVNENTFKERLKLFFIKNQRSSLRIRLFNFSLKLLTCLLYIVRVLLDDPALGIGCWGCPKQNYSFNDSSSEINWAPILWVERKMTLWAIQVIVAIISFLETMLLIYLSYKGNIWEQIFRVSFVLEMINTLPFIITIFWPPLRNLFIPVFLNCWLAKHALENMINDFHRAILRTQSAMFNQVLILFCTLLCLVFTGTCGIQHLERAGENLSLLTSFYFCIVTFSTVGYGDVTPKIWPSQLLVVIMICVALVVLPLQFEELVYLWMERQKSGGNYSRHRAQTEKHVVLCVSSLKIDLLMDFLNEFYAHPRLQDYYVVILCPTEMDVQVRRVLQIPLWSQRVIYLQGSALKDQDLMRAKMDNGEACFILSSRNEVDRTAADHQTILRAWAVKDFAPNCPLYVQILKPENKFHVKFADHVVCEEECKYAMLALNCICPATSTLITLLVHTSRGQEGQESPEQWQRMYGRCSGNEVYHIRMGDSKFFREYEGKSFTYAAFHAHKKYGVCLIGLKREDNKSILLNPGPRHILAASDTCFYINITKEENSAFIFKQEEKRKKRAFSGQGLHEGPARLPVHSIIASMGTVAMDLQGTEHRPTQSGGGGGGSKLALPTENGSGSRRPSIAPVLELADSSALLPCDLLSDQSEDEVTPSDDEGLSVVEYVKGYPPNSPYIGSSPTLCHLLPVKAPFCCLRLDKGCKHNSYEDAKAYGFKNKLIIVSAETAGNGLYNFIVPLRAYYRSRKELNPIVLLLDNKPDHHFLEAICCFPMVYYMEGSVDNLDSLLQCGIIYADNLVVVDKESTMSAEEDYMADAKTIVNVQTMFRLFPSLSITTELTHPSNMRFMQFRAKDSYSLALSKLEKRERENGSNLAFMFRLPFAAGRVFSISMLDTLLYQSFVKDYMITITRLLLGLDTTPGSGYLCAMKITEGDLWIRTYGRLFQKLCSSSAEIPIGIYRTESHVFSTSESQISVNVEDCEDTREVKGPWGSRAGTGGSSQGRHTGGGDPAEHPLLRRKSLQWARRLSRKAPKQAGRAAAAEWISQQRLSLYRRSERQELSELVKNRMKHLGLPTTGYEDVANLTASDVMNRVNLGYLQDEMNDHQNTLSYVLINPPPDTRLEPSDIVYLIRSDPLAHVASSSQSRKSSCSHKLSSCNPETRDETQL

[2] = biological target: T1, Potassium channel subfamily T member 1; assay: Inhibition of wild-type Slack (unknown origin) expressed in HEK293 cells measured by whole-cell electrophysiology assay
[3] = biological target: T2, Calcium-activated potassium channel subunit alpha-1 (Homo sapiens, UniProt Q12791); assay: Inhibition of Maxi-K (unknown origin) expressed in HEK293 cells measured by thallium flux assay
T2 sequence (Q12791 whole entry): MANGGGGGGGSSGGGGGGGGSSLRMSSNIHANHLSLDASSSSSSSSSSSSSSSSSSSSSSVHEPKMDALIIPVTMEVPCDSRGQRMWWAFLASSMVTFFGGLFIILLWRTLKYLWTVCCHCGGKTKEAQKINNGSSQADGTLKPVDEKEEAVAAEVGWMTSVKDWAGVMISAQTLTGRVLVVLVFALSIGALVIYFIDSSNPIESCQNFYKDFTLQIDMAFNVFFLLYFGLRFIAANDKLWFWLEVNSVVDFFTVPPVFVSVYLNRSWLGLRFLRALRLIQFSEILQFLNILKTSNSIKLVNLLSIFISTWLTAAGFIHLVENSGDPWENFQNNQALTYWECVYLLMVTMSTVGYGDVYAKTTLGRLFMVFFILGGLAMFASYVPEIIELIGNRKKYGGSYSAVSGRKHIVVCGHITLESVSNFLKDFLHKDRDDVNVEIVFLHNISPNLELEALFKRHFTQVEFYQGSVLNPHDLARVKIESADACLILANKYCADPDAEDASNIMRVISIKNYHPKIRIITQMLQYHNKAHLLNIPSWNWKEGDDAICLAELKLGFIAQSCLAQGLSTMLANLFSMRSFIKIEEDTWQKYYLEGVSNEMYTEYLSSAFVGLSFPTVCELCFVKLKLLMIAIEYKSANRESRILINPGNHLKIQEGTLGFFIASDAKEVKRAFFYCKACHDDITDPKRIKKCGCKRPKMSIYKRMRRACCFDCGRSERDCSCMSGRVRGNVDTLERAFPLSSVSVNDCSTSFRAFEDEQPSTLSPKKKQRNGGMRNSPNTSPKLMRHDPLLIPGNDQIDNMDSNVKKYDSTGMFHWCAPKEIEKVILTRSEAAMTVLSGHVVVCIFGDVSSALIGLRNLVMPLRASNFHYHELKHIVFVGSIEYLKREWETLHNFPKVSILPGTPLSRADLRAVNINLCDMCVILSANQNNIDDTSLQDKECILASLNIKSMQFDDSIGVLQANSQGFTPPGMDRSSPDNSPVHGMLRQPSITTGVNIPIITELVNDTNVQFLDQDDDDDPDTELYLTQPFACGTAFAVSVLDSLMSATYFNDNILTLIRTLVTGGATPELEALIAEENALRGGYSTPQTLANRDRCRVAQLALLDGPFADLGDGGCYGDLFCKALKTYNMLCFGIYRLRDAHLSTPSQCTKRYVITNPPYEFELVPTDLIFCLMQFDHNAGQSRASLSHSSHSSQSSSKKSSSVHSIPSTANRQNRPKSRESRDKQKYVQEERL

[4] = biological target: T3, Potassium channel subfamily T member 2 (Homo sapiens, UniProt Q6UVM3); assay: Inhibition of Slick (unknown origin) expressed in HEK293 cells measured by thallium flux assay
T3 sequence (Q6UVM3 whole entry): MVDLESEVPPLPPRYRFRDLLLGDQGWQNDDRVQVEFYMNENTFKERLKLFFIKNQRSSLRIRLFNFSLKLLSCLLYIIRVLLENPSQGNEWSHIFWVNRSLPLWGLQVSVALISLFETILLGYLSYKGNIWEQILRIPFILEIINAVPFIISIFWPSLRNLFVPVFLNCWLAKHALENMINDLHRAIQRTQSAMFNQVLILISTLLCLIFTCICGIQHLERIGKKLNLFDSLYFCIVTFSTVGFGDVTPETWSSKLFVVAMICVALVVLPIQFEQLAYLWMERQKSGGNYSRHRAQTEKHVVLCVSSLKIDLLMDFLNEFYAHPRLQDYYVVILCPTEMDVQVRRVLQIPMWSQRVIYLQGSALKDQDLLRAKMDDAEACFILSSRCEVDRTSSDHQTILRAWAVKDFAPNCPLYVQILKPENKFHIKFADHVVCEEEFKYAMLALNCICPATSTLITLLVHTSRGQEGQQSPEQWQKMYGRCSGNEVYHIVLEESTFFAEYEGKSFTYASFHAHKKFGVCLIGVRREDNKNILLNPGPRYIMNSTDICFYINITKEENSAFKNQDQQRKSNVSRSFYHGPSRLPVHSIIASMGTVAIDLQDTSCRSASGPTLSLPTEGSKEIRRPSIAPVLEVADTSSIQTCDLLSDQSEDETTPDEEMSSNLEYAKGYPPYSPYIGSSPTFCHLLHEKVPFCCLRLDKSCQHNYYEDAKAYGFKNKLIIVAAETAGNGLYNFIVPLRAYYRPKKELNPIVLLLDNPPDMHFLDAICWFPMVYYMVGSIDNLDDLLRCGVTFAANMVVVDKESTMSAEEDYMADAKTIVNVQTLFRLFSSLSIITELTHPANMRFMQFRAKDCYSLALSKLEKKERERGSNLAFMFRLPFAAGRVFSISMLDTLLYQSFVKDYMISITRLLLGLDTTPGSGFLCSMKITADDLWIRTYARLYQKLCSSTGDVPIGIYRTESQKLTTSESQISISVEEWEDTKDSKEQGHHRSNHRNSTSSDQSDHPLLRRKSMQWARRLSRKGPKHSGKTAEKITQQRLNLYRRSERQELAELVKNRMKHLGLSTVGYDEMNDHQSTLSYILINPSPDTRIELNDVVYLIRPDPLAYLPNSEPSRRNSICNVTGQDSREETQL

[5] = Inhibition of Slack A934T mutant (unknown origin) expressed in HEK293 cells measured by whole-cell electrophysiology assay; details: Homo sapiens
[6] = Inhibition of human Slack A934T mutant expressed in HEK293 cells measured by thallium flux assay
[7] = biological target: T2, Calcium-activated potassium channel subunit alpha-1; assay: Inhibition of Maxi-K (unknown origin) expressed in HEK293 cells at 30 uM measured by thallium flux assay relative to control
[8] = biological target: T4, Potassium channel subfamily T member 2 (Homo sapiens) (UniProt Q6UVM3); assay: Inhibition of Slick (unknown origin) expressed in HEK293 cells at 30 uM measured by thallium flux assay relative to control
T4 sequence (whole entry): T3 sequence (Q6UVM3 whole entry)

[9] = biological target: T1, Potassium channel subfamily T member 1; assay: Activation of wild-type human Slack expressed in HEK293 cells measured by thallium flux assay

Compound: COc1ccc(Cl)cc1NC(=O)CN1CCN(S(=O)(=O)N2CCC(C)CC2)C[C@H]1C
IC50 [2]: 1.7 µM
IC50 [3]: > 10 µM
IC50 [4]: > 10 µM
IC50 [5]: 1.9 µM
IC50 [1]: 2.4 µM
IC50 [6]: 1.1 µM
Efficacy [7]: 32%
Efficacy [8]: 50%

Compound: COc1ccc(Cl)cc1NC(=O)CN1CCN(S(=O)(=O)N2CCN(S(=O)(=O)N3CCC(F)(F)C3)CC2)CC1
EC50 [9]: > 10 µM

Compound: COc1ccc(Cl)cc1NC(=O)N1CCCN(S(=O)(=O)N2CCC(C)CC2)CC1
IC50 [1]: 6.2 µM

Compound: COc1ccc(Cl)cc1NC(=O)N1CC2(CCN(S(=O)(=O)N3CCC(C)CC3)CC2)C1
EC50 [9]: > 10 µM

Compound: COc1ccc(Cl)cc1NC(=O)CN1CCN(S(=O)(=O)N2CCC(C)CC2)C[C@@H]1C
IC50 [1]: 3.5 µM
IC50 [6]: 2.1 µM

Compound: CC1CCN(S(=O)(=O)N2CCN(CC(=O)Nc3cccc(F)c3)CC2)CC1
EC50 [9]: 4.6 µM

Compound: CCCC1CCN(C(=O)N2CCN(S(=O)(=O)N3CCN(CC(=O)Nc4cc(Cl)ccc4OC)CC3)CC2)CC1
IC50 [1]: > 10 µM

Compound: COc1ccc(Cl)cc1NC(=O)CN1CCN(S(=O)(=O)N2CCN(C(=O)N3CCCCCC3)CC2)CC1
EC50 [9]: > 10 µM

Compound: COc1ccc(Cl)cc1NC(=O)N1CC2(C1)CN(S(=O)(=O)N1CCC(C)CC1)C2
IC50 [1]: > 10 µM

Compound: COc1ccc(Cl)cc1NC(=O)[C@H](C)N1CCN(S(=O)(=O)N2CCC(C(F)(F)F)CC2)CC1
IC50 [4]: > 10 µM

Compound: COc1ccc(Cl)cc1NC(=O)CN(C)CCN(C)S(=O)(=O)N1CCC(C)CC1
IC50 [1]: > 10 µM

Compound: COc1ccc(Cl)cc1NC(=O)CN1CCN(S(=O)(=O)N2CCC(C)CC2)[C@@H](C)C1
IC50 [1]: > 10 µM

Compound: COc1ccc(Cl)cc1NC(=O)CN1CCN(S(=O)(=O)N2CCN(C(=O)N3CCCCC3)CC2)CC1
EC50 [9]: > 10 µM

Compound: COc1ccc(Cl)cc1NC(=O)CN1CCN(S(=O)(=O)N2CCC(C)CC2)[C@H](C)C1
IC50 [1]: 13 µM

Now from value to compound:

IC50 [1]: > 10 µM
Compound: Cc1ccc(Cl)cc1NC(=O)CN1CCN(S(=O)(=O)N2CCC(C)CC2)CC1

IC50 [1]: > 10 µM
Compound: COc1ccccc1NC(=O)CN1CCN(S(=O)(=O)N2CCC(C)CC2)CC1

IC50 [1]: 4.3 µM
IC50 [6]: 3.1 µM
Compound: CCCOc1ccc(Cl)cc1NC(=O)CN1CCN(S(=O)(=O)N2CCC(C)CC2)CC1

IC50 [1]: 4.9 µM
IC50 [6]: 2.3 µM
Compound: COc1ccc(F)cc1NC(=O)CN1CCN(S(=O)(=O)N2CCC(C)CC2)CC1

IC50 [2]: 1.7 µM
IC50 [4]: > 10 µM
IC50 [5]: 1.6 µM
IC50 [1]: 2.4 µM
IC50 [6]: 1.4 µM
Compound: COc1ccc(Cl)cc1NC(=O)CN1CCN(S(=O)(=O)N2CCC(C)CC2)CC1

EC50 [9]: 3.8 µM
Compound: CC1CCN(S(=O)(=O)N2CCN(CC(=O)Nc3cc(Cl)ccc3F)CC2)CC1

EC50 [9]: 4.1 µM
Compound: Cc1ccc(NC(=O)CN2CCN(S(=O)(=O)N3CCC(C)CC3)CC2)cc1

IC50 [1]: > 10 µM
Compound: COc1ccc(C)cc1NC(=O)CN1CCN(S(=O)(=O)N2CCC(C)CC2)CC1

IC50 [1]: 7.1 µM
Compound: CCOc1ccc(Cl)cc1NC(=O)CN1CCN(S(=O)(=O)N2CCC(C)CC2)CC1

EC50 [9]: > 10 µM
Compound: COc1ccc(NC(=O)CN2CCN(S(=O)(=O)N3CCC(C)CC3)CC2)cc1

IC50 [3]: > 10 µM
IC50 [4]: 4.1 µM
Compound: COc1ccc(C(F)(F)F)cc1NC(=O)CN1CCN(S(=O)(=O)N2CCC(C)CC2)CC1

IC50 [1]: 5.1 µM
Compound: CC1CCN(S(=O)(=O)N2CCN(CC(=O)Nc3cc(Cl)ccc3OC(C)C)CC2)CC1

IC50 [1]: 1.4 µM
Compound: COc1ccc(Br)cc1NC(=O)CN1CCN(S(=O)(=O)N2CCC(C)CC2)CC1
